Assay results as given in PMC12700902 (Communications Biology, 2025).
Values joined by “and” are separate entries in the source; they are usually repeats but may differ in a detail not shown here. Identical values can stand only once. “Also recorded” adds a separate entry of the source. Like-named read-outs stand apart in the source and are kept apart here. One block for each compound: values may come before it.

Legend:
[1] = tested on: α5 subunit of D. melanogaster; details: homomeric receptor; cited from earlier work
A. mellifera α5 nAChR = A. mellifera α5 nAChR (Apis mellifera, UniProt A0A0H3V1C5); experiment: Two-electrode voltage clamp of X. laevis oocytes expressing the A. mellifera α5 nAChR (wild-type); format: cell-based; details: for normalised current response (Fig. 1c source data): single oocytes, normalised to maximal concentration of Fig. 1b
Protocol: (§1) Oocytes were mainly obtained either from Ecocyte (https://ecocyte-us.com/products/xenopus-oocyte-delivery-service/), which arrived ready for injection, or from the European Xenopus Resource Centre (https://xenopusresource.org/resources) as ovarian sections. In the latter case, oocytes were either prepared for injection by incubation in collagenase type I in OR2 (sodium chloride 82 mM, potassium chloride 2 mM, magnesium chloride 2 mM, HEPES 5 mM, pH 7.6) at 2 mg/ml for 45 min at room temperature and shaking at 150 RPM[19] or by manual defolliculation followed by incubation with 0.5 mg/ml collagenase type I in OR2 for 6 min at room temperature at 150 RPM. Oocyte nuclei were injected with 23 nl of A. mellifera α5 DNA cloned into the pCI vector[19] […] Mutant A. mellifera α5 subunits (in pCI) were injected at 100–500 ng/µl. […] Oocytes were clamped at −80 mV and responses were recorded on a flatbed chart recorder (Kipp and Zonen BD-11E, Delft, The Netherlands). The oocytes were continuously perfused with SOS at a flow rate of 10 ml/min. Oocytes were selected for experiments if responses were consistent for two or more applications of the normalising concentration of agonist. Test chemicals were applied at 3 min intervals. Agonist concentration response curves were created by measuring the response of the oocytes to different agonist concentrations in SOS, responses were normalised to the maximal response induced by the agonist. Amitraz (10 mM) was dissolved in DMSO and then at a working concentration in 1:1000 ratio in SOS. All other chemicals were either dissolved in distilled water to make frozen stocks (100 mM) or dissolved directly in SOS (10 mM) on the day of use. […] Oocytes were clamped at voltages ranging between −100 and +40 mV to determine the current voltage relationship.
Concentration-response data were fitted with the Hill equation: y=Imax/1/EC50/agonist^nH where y is the normalised current amplitude, Imax is the maximal response Imax/Iagonistmax , EC50 is the agonist concentration at half-maximal efficacy, [agonist] is the agonist concentration and nH is the Hill coefficient, to estimate the EC50 and Hill coefficient. Curve fitting was carried out using GraphPad software version 10 (GraphPad Software, La Jolla, CA, United States). […] The peak of the current responses was normalised to the agonist concentration that gave a maximal response. Error bars on graphs show standard error, ‘n’ indicates the number of experiments and ‘batch’ indicates the number of frogs these oocytes came from. Values are shown as mean ± 95% confidence limits.

[2] = tested on: X. laevis oocytes injected with water only; experiment: Oocytes injected with water only; format: cell-based, Xenopus laevis
Protocol: as §1

[3] = read-out: Maximum response relative to 5 mM ACh (%)
[4] = 1 mM, applied 3 min after 5 mM ACh
[5] = Table 1 series, oocytes clamped at −80 mV, mean (95% confidence limits), read-out: EC50
[6] = Table 1 series, mean (95% confidence limits)

Chain of A. mellifera α5 nAChR (A0A0H3V1C5 entry or part of it): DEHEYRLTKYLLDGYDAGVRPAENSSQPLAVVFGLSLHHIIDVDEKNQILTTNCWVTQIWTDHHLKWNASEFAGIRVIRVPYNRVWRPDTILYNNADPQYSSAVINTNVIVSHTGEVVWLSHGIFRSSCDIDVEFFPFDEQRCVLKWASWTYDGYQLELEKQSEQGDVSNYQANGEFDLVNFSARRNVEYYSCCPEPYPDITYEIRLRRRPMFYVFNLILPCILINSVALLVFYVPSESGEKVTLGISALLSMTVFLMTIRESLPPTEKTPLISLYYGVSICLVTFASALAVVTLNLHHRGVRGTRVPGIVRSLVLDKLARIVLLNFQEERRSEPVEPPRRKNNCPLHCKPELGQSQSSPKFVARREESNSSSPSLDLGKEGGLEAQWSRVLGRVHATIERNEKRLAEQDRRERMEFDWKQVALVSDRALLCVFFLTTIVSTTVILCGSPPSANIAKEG

Compound: CC(=O)OCC[N+](C)(C)C [Acetylcholine, acetylcholine]
EC50 [1]: 8.8 µM
Hill coefficient (A. mellifera α5 nAChR): 2.304 (1.886–2.721)
effect of absence of Na+ on agonist response (A. mellifera α5 nAChR): eliminated the response
response on co-application (A. mellifera α5 nAChR): synergistic agonism
response when applied alone (A. mellifera α5 nAChR): did not induce detectable responses
shape of concentration response curve (A. mellifera α5 nAChR): biphasic concentration response curve
Emax (A. mellifera α5 nAChR; [3]): 100%

Compound: C[N+](C)(C)CCO [Choline]
Hill coefficient (A. mellifera α5 nAChR): 2.043 (0.9065–3.180)
EC50 (A. mellifera α5 nAChR; EC50): 9070 µM
Emax (A. mellifera α5 nAChR; [3]): 100%

Hill coefficient (A. mellifera α5 nAChR): 2.220 (1.585–2.855)
effect of absence of Na+ on agonist response (A. mellifera α5 nAChR): eliminated the response
response on co-application (A. mellifera α5 nAChR): synergistic agonism
response when applied alone (A. mellifera α5 nAChR): did not induce detectable responses
Compound: NCCc1ccc(O)c(O)c1 [Dopamine, dopamine]
response of water-injected oocytes [2]: no detectable response; also recorded: no responses were detected

Compound: NCCCC(=O)O [GABA, γ-aminobutyric acid]
agonist response (A. mellifera α5 nAChR; [4]): none of them were able to induce detectable responses; also recorded: no agonist actions

Compound: NCCc1c[nH]cn1 [Histamine, histamine]
Hill coefficient (A. mellifera α5 nAChR): 2.500 (1.050–3.950)
type of agonist action relative to ACh (A. mellifera α5 nAChR): partial agonist
EC50 (A. mellifera α5 nAChR; [5]): 3360 µM
Emax at 5000 µM (A. mellifera α5 nAChR; [3]): 45.3%

Hill coefficient (A. mellifera α5 nAChR; [6]): 3.727 (2.998–4.455)
EC50 (A. mellifera α5 nAChR; [5]): 378 µM
normalised current response (Fig. 1c source data) (A. mellifera α5 nAChR; log[Agonist] M -2.22185, listed as OA): 1.1 and 0.809
normalised current response (Fig. 1c source data) (A. mellifera α5 nAChR; log[Agonist] M -3): 1
normalised current response (Fig. 1c source data) (A. mellifera α5 nAChR; log[Agonist] M -3.30103, listed as OA): 0.827 and 0.623
normalised current response (Fig. 1c source data) (A. mellifera α5 nAChR; log[Agonist] M -5): 0
Emax at 1000 µM (A. mellifera α5 nAChR; [3]): 899%
type of agonist action relative to ACh (A. mellifera α5 nAChR; wild-type): superagonists
Compound: NCC(O)c1ccc(O)cc1 (stereo not shown) [Octopamine, octopamine]
response of water-injected oocytes [2]: no tyramine and octopamine responses
normalised current response (Fig. 1c source data) (A. mellifera α5 nAChR; log[Agonist] M -2.52288, listed as OA): 0.943 and 1.14 and 0.971 and 0.986 and 0.935 and 1.1
normalised current response (Fig. 1c source data) (A. mellifera α5 nAChR; log[Agonist] M -3.22185, listed as OA): 0.892 and 0.674 and 0.971 and 0.901 and 1.01 and 0.859
normalised current response (Fig. 1c source data) (A. mellifera α5 nAChR; log[Agonist] M -3.52288, listed as OA): 0.284 and 0.276 and 0.462 and 0.451 and 0.389 and 0.232

Compound: NCCc1c[nH]c2ccc(O)cc12 [Serotonin]
Hill coefficient (A. mellifera α5 nAChR; [6]): 3.419 (2.503–4.335)
Emax (A. mellifera α5 nAChR; [3]): 238%

Compound: NCCc1ccc(O)cc1 [Tyramine, tyramine]
response of water-injected oocytes [2]: no tyramine and octopamine responses
Hill coefficient (A. mellifera α5 nAChR; [6]): 1.918 (1.355–2.481)
EC50 (A. mellifera α5 nAChR; [5]): 91.1 µM
normalised current response (Fig. 1c source data) (A. mellifera α5 nAChR; log[Agonist] M -3): 1
normalised current response (Fig. 1c source data) (A. mellifera α5 nAChR; log[Agonist] M -4, listed as TA): 0.538 and 0.456 and 0.597 and 0.416 and 0.62
normalised current response (Fig. 1c source data) (A. mellifera α5 nAChR; log[Agonist] M -5): 0
Emax at 1000 µM (A. mellifera α5 nAChR; [3]): 770%
type of agonist action relative to ACh (A. mellifera α5 nAChR; wild-type): superagonists

Compound: Cc1ccc(/N=C/N(C)/C=N/c2ccc(C)cc2C)c(C)c1 [amitraz]
antagonist action (A. mellifera α5 nAChR; 10 µM coapplied with 400 µM octopamine): no antagonist actions; also recorded: nor antagonistic actions
agonist action (A. mellifera α5 nAChR; 10 µM, applied 3 min after 5 mM ACh): no agonist actions; also recorded: did not show any agonist actions

Compound: N[C@@H](CCC(=O)O)C(=O)O [glutamate]
agonist response (A. mellifera α5 nAChR; [4]): none of them were able to induce detectable responses; also recorded: no agonist actions

Compound: NCC(=O)O [glycine]
agonist response (A. mellifera α5 nAChR; [4]): none of them were able to induce detectable responses; also recorded: no agonist actions

Compound: COc1cc(CCO)ccc1O [homovanillyl alcohol]
agonist response (A. mellifera α5 nAChR; 100 μM or 1 mM): did not elicit a response; also recorded: no agonist actions

Compound: α-bungarotoxin
antagonist action on ACh response (A. mellifera α5 nAChR): antagonistic actions
washing time after which response to 2 mM ACh was restored (A. mellifera α5 nAChR): 26 min
